In this experiment the target is Pyruvate Dehydrogenase Kinase 3 (PDK3) (Homo sapiens, UniProt Q15120). Put plainly: BIOMOL Green ATPase assay with purified PDK3. It counts as biochemical.
Sequence of Pyruvate Dehydrogenase Kinase 3 (PDK3) (Q15120 whole entry): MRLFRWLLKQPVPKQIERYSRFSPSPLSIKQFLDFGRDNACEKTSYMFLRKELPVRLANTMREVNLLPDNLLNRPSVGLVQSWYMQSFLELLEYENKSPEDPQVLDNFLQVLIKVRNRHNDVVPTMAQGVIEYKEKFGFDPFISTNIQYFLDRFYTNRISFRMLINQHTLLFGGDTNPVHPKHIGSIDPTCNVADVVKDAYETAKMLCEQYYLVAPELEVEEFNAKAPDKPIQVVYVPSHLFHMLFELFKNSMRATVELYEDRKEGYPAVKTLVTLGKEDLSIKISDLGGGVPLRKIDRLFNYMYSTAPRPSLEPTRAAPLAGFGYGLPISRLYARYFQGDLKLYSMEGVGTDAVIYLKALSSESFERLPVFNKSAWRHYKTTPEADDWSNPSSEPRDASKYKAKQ

For orientation: IC50 means the midpoint of a concentration-inhibition curve. A lower IC50 goes with inhibition by little substance. For the molecule `Cc1ccc(O)cc1` [p-C, 4-methylphenol], half-maximal inhibition (IC50) required 3.52 µM.

Source of the values: PMC12612088 (Scientific Reports, 2025).
